Values quoted from earlier work as cited in patent EP3599609A1, “SYSTEM AND METHOD FOR CLEANING NOISY GENETIC DATA AND USING DATA TO MAKE PREDICTIONS” (Natera, Inc., priority 2005, dated 2007).

Conditions: colon cancer patients treated with irinotecan

For CCc1c2c(nc3ccc(OC(=O)N4CCC(N5CCCCC5)CC4)cc13)-c1cc3c(c(=O)n1C2)COC(=O)[C@]3(O)CC [irinotecan], the “severe diarrhea, patients affected” value is given as 31% and the “severe neutropenia, patients affected” value is given as 28%.
